From US20230348418A1, “ISOINDOLINONE COMPOUNDS” (Monte Rosa Therapeutics, Inc., priority 2021, published 2023)
Where two headings read alike, the source gives them in different places.

What was measured:
[1] = target: T1, IKZF1 (Ikaros) (Homo sapiens, UniProt Q13422); assay: Western blot selectivity assay in MM1S cells: IKZF1; assay type: cell-based; set-up: key: A represents a no degradation observed at 30 μM; B represents trace degradation at 30 μM (below 20%); C represents weak degradation at 30 μM (below 50%); D represents degradation at 30 μM (>90%); E represents degradation at 3 μM (>90%); F represents degradation at 0.3 μM (>90%); conditions: MM1S cells, 0.3, 3 and 30 μM, 6 hours
T1 construct: endogenous in cells; host or cells: MM1S (ATCC CRL-2974)
T1 sequence (Q96SW2 whole entry partner): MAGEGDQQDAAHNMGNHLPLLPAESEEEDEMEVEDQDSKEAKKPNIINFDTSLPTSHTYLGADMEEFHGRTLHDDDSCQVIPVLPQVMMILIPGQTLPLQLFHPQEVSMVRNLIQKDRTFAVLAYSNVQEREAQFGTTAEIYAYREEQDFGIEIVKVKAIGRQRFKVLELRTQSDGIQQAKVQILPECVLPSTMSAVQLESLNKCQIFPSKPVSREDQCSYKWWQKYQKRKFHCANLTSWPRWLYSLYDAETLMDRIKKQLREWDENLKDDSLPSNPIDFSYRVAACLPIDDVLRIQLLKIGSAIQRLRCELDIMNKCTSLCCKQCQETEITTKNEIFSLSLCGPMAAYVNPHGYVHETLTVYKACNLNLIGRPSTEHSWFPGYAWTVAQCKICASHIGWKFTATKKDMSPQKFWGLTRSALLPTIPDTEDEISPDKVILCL
T1 sequence (Q16531 2-1140 partner limits assumed): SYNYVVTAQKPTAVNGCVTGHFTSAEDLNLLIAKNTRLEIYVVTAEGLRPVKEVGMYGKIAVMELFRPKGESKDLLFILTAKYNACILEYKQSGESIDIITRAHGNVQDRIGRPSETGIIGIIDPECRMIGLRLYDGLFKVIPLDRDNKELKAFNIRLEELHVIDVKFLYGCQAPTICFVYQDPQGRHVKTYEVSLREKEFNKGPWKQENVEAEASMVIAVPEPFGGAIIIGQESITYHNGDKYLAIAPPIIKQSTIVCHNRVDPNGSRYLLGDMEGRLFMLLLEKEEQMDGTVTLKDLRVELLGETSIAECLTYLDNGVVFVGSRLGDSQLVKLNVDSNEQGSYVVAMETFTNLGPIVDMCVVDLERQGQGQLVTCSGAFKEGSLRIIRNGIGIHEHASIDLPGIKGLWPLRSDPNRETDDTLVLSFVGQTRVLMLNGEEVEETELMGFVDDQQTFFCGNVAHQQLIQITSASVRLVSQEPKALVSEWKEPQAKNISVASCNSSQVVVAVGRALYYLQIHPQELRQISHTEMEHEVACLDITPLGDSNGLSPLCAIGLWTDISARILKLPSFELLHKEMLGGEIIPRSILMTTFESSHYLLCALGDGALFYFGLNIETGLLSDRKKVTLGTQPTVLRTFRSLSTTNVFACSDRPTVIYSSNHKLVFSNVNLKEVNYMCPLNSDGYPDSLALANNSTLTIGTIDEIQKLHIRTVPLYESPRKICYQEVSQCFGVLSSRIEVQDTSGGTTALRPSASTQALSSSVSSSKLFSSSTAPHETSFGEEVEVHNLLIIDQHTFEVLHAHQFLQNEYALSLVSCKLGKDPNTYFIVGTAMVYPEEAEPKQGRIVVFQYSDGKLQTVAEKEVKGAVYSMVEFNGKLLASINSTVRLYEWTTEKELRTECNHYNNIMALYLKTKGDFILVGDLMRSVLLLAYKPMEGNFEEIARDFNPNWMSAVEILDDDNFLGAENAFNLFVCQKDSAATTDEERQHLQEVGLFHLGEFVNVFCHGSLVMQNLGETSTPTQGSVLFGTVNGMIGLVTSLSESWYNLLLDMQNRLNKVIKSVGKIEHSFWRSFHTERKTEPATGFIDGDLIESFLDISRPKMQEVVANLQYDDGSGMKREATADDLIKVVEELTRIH
T1 sequence (Q13422 whole entry): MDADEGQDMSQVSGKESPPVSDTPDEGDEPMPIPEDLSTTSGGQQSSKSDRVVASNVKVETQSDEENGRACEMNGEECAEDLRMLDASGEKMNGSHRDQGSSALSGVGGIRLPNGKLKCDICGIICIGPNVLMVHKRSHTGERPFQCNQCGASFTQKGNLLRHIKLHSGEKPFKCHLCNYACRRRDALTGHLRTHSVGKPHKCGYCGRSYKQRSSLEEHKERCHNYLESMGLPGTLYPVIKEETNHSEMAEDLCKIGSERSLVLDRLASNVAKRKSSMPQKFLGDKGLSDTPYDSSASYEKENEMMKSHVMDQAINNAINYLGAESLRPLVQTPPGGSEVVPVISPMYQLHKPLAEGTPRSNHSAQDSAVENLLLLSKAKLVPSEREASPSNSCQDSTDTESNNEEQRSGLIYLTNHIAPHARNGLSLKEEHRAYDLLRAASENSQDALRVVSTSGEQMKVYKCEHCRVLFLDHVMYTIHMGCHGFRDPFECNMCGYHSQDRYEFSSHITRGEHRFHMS
Method: (§1) MM1S cells were purchased from ATCC (cat. Number CRL-2974), sub-cultured in 90% RPMI 1640 with 10% FBS, supplemented with 1×P/S and incubated at 37° C., 5% CO2. Compounds were stored as 10 mM DMSO stock. For the assay, MM1S cells (3 million cells/well) were plated in 6-well plates and incubated over night. Cells were treated with respective compounds using a serial dilution: 0.3 μM, 3 μM and 30 μM as well as a vehicle only (DMSO) control for 6 hours. Media with suspension cells was subsequently transferred to 15 mL conical tubes, wells rinsed twice with ice-cold PBS and merged with cell suspension in respective 15 mL conical tube. Cells were spinned down, supernatant aspirated, pellets resuspended in ice-cold PBS and transferred to microtubes. Cells were spinned down, supernatant aspirated and pellets resuspended in 120 μL RIPA lysis buffer supplemented with protease and phosphatase inhibitors. Cell lysates were incubated on ice for 20 minutes followed by centrifugation at >20,000×g for 5 min. Supernatants were transferred to fresh microtubes and stored at −80° C. Total protein concentration was determined using a BCA assay with a BSA standard curve and concentration of all samples was adjusted to 1 mg/mL. 25 μL 4×LDS sample buffer supplemented with 100 mM DTT was added to 75 μL sample. Samples were centrifuged (8,000×g, 1 min) and incubated at 95° C. for 5 min followed by another centrifugation step (8,000×g, 1 min). 20 μL of each sample was loaded on a 4-12% gel alongside a protein molecular weight marker. Gels were run in the presence of MOPS buffer at 80 Volts for 30 min, followed by 120 Volts for 1.5 h and proteins subsequently transferred onto nitrocellulose membranes at 20 Volts for 7 min using an iBlot2 Gel Transfer Device. Membranes were then cut horizontally into two pieces, covering 80-50 kDa and 50-25 kDa. Blocking the membranes was performed by gently shaking in 5% (w/v) skim milk in TSB-T for 1 hr at room temperature. All primary antibodies were used at a 1/1000 in 5% (w/v) BSA dissolved in TBST and incubated with membranes over night at 4° C. Anti-IKZF1 (Ikaros; D6N9Y; 14859S), anti-IKZF3 (Aiolos; D1C1E; 15103S) antibodies were purchased from Cell Signalling Technology, anti-ZFP91 antibody from Bethyl laboratories, anti-GSPT1 from Sigma Aldrich (HPA052488) and anti CK1alpha from AbCam (ab206652). After three washes with 1×TBST for 5 min, HRP-coupled secondary antibodies diluted in 5% (w/v) BSA/TBST (Goat Anti-Rb IgG, dil. 1/10,000; Goat Anti-Mouse IgG, dil. 1/5000) were added for 1 hr at room temperature. After three washes with 1×TBST (5 minutes each), membranes were incubated with ECL reagent for 1 min at room temperature. Chemiluminescence signals were then detected using a LAS-4000 system with default settings and signals quantified using Image Studio Lite software (version 5.2). Membrane parts previously incubated with antibody against CK1alpha were stripped off antibodies by incubating with stripping buffer for 30 minutes followed by three washed with TBST (5 min each), blocking with 5% (w/v) skim milk for 1 hr, and incubation with primary antibody against GAPDH overnight at 4° C. Subsequent washes, incubation with secondary antibody and signal acquisition were performed as described above.

[2] = target: T2, ZFP91 (Homo sapiens, UniProt Q96JP5); assay: Western blot selectivity assay in MM1S cells: ZFP91; assay type: cell-based; set-up: key: A represents a no degradation observed at 30 μM; B represents trace degradation at 30 μM (below 20%); C represents weak degradation at 30 μM (below 50%); D represents degradation at 30 μM (>90%); E represents degradation at 3 μM (>90%); F represents degradation at 0.3 μM (>90%); conditions: MM1S cells, 0.3, 3 and 30 μM, 6 hours
T2 construct: endogenous in cells; host or cells: MM1S (ATCC CRL-2974)
T2 sequence (Q96SW2 whole entry partner): as the sequence (Q96SW2 whole entry partner) above
T2 sequence (Q16531 2-1140 partner limits assumed): as the sequence (Q16531 2-1140 partner limits assumed) above
T2 sequence (Q96JP5 2-570 limits assumed): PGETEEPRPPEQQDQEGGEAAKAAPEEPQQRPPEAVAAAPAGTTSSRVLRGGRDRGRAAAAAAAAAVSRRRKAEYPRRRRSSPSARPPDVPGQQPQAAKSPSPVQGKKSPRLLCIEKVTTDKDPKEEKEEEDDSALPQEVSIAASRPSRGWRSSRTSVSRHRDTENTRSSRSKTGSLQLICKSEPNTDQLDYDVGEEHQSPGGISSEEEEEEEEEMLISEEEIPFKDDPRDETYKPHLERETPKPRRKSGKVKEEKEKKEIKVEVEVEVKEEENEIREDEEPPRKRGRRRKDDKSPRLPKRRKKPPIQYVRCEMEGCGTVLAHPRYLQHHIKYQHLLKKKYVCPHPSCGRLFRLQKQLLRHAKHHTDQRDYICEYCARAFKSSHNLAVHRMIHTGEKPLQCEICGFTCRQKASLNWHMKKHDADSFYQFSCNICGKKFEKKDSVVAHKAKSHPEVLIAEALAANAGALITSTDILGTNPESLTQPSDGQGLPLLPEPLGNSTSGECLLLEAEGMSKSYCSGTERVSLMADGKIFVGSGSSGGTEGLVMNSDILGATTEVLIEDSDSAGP
Method: (§2) MM1S cells were purchased from ATCC (cat. Number CRL-2974), sub-cultured in 90% RPMI 1640 with 10% FBS, supplemented with 1×P/S and incubated at 37° C., 5% CO2. Compounds were stored as 10 mM DMSO stock. For the assay, MM1S cells (3 million cells/well) were plated in 6-well plates and incubated over night. Cells were treated with respective compounds using a serial dilution: 0.3 μM, 3 μM and 30 μM as well as a vehicle only (DMSO) control for 6 hours. Media with suspension cells was subsequently transferred to 15 mL conical tubes, wells rinsed twice with ice-cold PBS and merged with cell suspension in respective 15 mL conical tube. Cells were spinned down, supernatant aspirated, pellets resuspended in ice-cold PBS and transferred to microtubes. Cells were spinned down, supernatant aspirated and pellets resuspended in 120 μL RIPA lysis buffer supplemented with protease and phosphatase inhibitors. Cell lysates were incubated on ice for 20 minutes followed by centrifugation at >20,000×g for 5 min. Supernatants were transferred to fresh microtubes and stored at −80° C. Total protein concentration was determined using a BCA assay with a BSA standard curve and concentration of all samples was adjusted to 1 mg/mL. […] Chemiluminescence signals were then detected using a LAS-4000 system with default settings and signals quantified using Image Studio Lite software (version 5.2). […]

[3] = target: GSPT1 (Homo sapiens, UniProt P15170+Q96SW2); assay: Western blot selectivity assay in MM1S cells: GSPT1; assay type: cell-based; set-up: endogenous in cells; host or cells: MM1S (ATCC CRL-2974); conditions: MM1S cells, 0.3, 3 and 30 μM, 6 hours
GSPT1, sequence (P15170 whole entry): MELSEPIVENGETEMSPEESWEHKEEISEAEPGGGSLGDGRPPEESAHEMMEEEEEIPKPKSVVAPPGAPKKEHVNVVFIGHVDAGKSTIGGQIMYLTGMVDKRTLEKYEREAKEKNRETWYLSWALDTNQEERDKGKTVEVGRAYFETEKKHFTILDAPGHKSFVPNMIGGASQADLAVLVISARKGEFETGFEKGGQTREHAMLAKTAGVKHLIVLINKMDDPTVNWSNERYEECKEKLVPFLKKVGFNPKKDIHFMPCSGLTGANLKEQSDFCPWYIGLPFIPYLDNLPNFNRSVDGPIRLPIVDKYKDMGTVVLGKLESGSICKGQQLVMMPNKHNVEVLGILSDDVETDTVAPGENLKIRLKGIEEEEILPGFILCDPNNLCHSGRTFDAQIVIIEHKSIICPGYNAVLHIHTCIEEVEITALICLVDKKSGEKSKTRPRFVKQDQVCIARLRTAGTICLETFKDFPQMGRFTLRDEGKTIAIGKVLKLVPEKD
GSPT1, sequence (Q96SW2 whole entry): as the sequence (Q96SW2 whole entry partner) above
GSPT1, sequence (Q16531 2-1140 partner limits assumed): as the sequence (Q16531 2-1140 partner limits assumed) above
Method: as §1

[4] = target: T3, Full length wild-type cereblon CRBN (Homo sapiens, UniProt Q96SW2); assay: Fluorescence polarization (FP) assay, cereblon binding
T3 construct: Full length wild-type cereblon CRBN (80.0 nM, 10 μL) was incubated in assay buffer
T3 sequence (Q96SW2 whole entry): as the sequence (Q96SW2 whole entry partner) above
In short: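 Full-length wild-type human CRBN (80.0 nM) was preincubated with compound for 30 min at room temperature in 20 mM HEPES pH 8.0, 150 NaCl, 0.5 mM TCEP and 0.05% Tween 20. A Cy5-type thalidomide-linked fluorescent probe was then added. The FP signal was normalized to the DMSO control to derive IC50.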

[5] = target: T4, CK1alpha (Homo sapiens, UniProt P48729); assay: Western blot selectivity assay in MM1S cells: CK1alpha; assay type: cell-based; set-up: key: A represents a no degradation observed at 30 μM; B represents trace degradation at 30 μM (below 20%); C represents weak degradation at 30 μM (below 50%); D represents degradation at 30 μM (>90%); E represents degradation at 3 μM (>90%); F represents degradation at 0.3 μM (>90%); conditions: MM1S cells, 0.3, 3 and 30 μM, 6 hours
T4 construct: endogenous in cells; host or cells: MM1S (ATCC CRL-2974)
T4 sequence (Q96SW2 whole entry partner): as above
T4 sequence (Q16531 2-1140 partner limits assumed): as the sequence (Q16531 2-1140 partner limits assumed) above
T4 sequence (P48729 whole entry): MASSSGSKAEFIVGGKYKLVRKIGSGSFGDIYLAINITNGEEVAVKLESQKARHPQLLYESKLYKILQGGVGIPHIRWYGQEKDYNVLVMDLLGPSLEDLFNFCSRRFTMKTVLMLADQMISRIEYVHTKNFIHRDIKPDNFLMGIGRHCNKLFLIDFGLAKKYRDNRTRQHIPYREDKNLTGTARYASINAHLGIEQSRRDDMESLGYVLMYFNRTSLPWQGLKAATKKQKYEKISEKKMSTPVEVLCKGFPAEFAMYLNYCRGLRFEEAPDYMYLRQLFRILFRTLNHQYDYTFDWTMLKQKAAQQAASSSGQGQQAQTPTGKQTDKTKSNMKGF
Method: as §2

[6] = target: T5, IKZF3 (Aiolos) (Homo sapiens, UniProt Q9UKT9); assay: Western blot selectivity assay in MM1S cells: IKZF3; assay type: cell-based; set-up: key: A represents a no degradation observed at 30 μM; B represents trace degradation at 30 μM (below 20%); C represents weak degradation at 30 μM (below 50%); D represents degradation at 30 μM (>90%); E represents degradation at 3 μM (>90%); F represents degradation at 0.3 μM (>90%); conditions: MM1S cells, 0.3, 3 and 30 μM, 6 hours
T5 construct: endogenous in cells; host or cells: MM1S (ATCC CRL-2974)
T5 sequence (Q96SW2 whole entry partner): as the sequence (Q96SW2 whole entry partner) above
T5 sequence (Q16531 2-1140 partner limits assumed): as the sequence (Q16531 2-1140 partner limits assumed) above
T5 sequence (Q9UKT9 whole entry): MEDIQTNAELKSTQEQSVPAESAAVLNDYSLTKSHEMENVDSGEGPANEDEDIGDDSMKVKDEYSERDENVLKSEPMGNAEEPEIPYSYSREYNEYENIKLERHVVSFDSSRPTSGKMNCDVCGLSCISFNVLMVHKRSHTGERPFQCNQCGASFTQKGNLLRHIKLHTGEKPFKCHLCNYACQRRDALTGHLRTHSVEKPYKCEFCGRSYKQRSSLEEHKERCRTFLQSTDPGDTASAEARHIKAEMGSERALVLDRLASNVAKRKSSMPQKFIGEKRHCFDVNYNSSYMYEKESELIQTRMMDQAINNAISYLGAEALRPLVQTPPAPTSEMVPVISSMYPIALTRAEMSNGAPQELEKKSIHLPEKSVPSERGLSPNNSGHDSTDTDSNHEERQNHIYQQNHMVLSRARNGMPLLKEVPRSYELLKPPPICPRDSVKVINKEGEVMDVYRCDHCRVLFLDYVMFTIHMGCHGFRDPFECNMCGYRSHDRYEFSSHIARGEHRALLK
Method: as §1, with “After three washes with 1×TBST (5 minutes each), membranes were incubated with ECL reagent for 1 min at room temperature.” left out, “Membrane parts previously incubated with antibody against CK1alpha were stripped off antibodies by incubating with stripping buffer for 30 minutes followed by three washed with TBST (5 min each), blocking with 5% (w/v) skim milk for 1 hr, and incubation with primary antibody against GAPDH overnight at 4° C. Subsequent washes, incubation with secondary antibody and signal acquisition were performed as described above.” left out

[7] = bounds stated in the text lists b2059-b2061, read-out: IC50 value
[8] = cereblon binding, class code, read-out: rFP IC50

SMILES: COc1cc(C)c(Cl)cc1NC(=O)OCc1ccc2c(c1)C(=O)N(C1CCC(=O)NC1=O)C2 (stereo not drawn) [Compound 1]
- IKZF1 degradation [1]: A
- ZFP91 degradation [2]: A
- GSPT1 degradation [3]: F (F represents degradation at 0.3 μM (>90%))
- IC50 [4, 7]: < 1700 nM
- IC50 [4, 8]: 1100 to 1700 nM

SMILES: Cc1ncc(NC(=O)OCc2ccc3c(c2)C(=O)N(C2CCC(=O)NC2=O)C3)cc1Cl (stereo not drawn) [Compound 6]
- IKZF1 degradation [1]: A
- GSPT1 degradation [3]: F (F represents degradation at 0.3 μM (>90%))
- CK1alpha degradation [5]: A
- IC50 [4, 7]: < 1700 nM
- IC50 [4, 8]: 500 to 1100 nM

SMILES: CCc1ncc(NC(=O)OCc2ccc3c(c2)C(=O)N(C2CCC(=O)NC2=O)C3)cc1C (stereo not drawn) [Compound 49]
- IKZF1 degradation [1]: A
- IKZF3 degradation [6]: A
- GSPT1 degradation [3]: F (F represents degradation at 0.3 μM (>90%))
- IC50 [4, 7]: < 1700 nM
- IC50 [4, 8]: 1100 to 1700 nM
